Measured values as given in ChEMBL document CHEMBL4732190, “Identification of Potent and Long-Acting Single-Chain Peptide Mimetics of Human Relaxin-2 for Cardiovascular Diseases” (J Med Chem, 2021).
*1 amine or outer side, *2 acyl side, *3 side chain or, on linkers, in order; H or OH if unused. Where a SMILES comes first, the peptide text is derived from it. [ ]: non-standard residue; d: D form. The star is where a group is joined. PEG11 = NCCOCCOCCOCCOCCOCCOCCOCCOCCOCCOCCOCCC(=O)O; X8 = NC(=O)CC[C@H](N*)C(=O)CCCCCCCCCCCCCCCC(=O)O; X7 = CCCCCCCCCCCCCCCC(=O)[C@H](CCC(N)=O)N*; β2hAla(2S) = C[C@@H](CN[*:1])C(=O)[*:2]; hLys = NCCCCC[C@H](N)C(=O)O; Nle = CCCC[C@H](N)C(=O)O

Key:
Relaxin receptor 1 [1] = biological target: T1, Relaxin receptor 1 (Homo sapiens, UniProt Q9HBX9); test: Agonist activity at RXFP1 endogenously expressed in human OVCAR-5 cells assessed as increase in IBMX-induced cAMP accumulation pretreated with IBMX for 40 mins followed by compound addition and measured after 30 mins by HTRF assay; type: functional, cell-based
T1 sequence (Q9HBX9 whole entry): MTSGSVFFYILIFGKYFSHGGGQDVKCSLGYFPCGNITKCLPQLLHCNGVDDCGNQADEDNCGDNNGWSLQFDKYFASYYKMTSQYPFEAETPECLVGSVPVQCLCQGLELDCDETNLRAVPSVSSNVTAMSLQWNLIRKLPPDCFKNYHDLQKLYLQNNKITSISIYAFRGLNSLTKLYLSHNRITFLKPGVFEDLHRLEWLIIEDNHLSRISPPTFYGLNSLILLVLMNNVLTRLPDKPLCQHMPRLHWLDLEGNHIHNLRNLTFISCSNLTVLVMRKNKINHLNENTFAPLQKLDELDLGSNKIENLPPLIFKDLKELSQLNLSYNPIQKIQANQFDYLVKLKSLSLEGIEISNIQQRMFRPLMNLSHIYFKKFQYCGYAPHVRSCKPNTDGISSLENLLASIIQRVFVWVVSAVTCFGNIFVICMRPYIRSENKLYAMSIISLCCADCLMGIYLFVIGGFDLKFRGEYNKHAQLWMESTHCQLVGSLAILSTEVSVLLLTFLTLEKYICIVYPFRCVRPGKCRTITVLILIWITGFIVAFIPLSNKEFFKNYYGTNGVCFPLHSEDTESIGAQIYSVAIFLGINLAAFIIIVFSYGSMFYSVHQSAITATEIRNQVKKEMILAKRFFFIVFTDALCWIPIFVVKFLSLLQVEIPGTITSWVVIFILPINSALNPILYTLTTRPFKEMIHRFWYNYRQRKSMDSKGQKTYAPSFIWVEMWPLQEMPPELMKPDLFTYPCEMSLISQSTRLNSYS

Relaxin receptor 1 [2] = biological target: T1, Relaxin receptor 1; test: Agonist activity at RXFP1 endogenously expressed in human OVCAR-5 cells assessed as increase in IBMX-induced cAMP accumulation pretreated with IBMX for 40 mins followed by compound addition and measured after 30 mins in presence of 2 % HSA by HTRF assay; type: functional, cell-based
[3] = biological target: T2, Relaxin receptor 1 (Homo sapiens) (UniProt Q9HBX9); test: Agonist activity at RXFP1 endogenously expressed in human OVCAR-5 cells assessed as increase in IBMX-induced cAMP accumulation pretreated with IBMX for 40 mins followed by compound addition and measured after 30 mins by HTRF assay relative to relaxin; type: functional, cell-based; settings: filed as agonist
T2 sequence (whole entry): T1 sequence (Q9HBX9 whole entry)

[4] = Half life in Sprague-Dawley rat at 1 mg/kg, iv measured upto 72 hrs by LC-HRMS analysis; type: ADME, organism-based; settings: in vivo
[5] = Stability in human plasma assessed as parent compound remaining level at 5 uM remaining after 4 hrs; type: ADME, cell-free; settings: read-out: Stabilty
[6] = Stability in rat plasma assessed as parent compound remaining level at 5 uM remaining after 4 hrs; type: ADME, cell-free; settings: read-out: Stabilty

| Molecule | EC50 (Relaxin receptor 1 [1]) [nM] | EC50 (Relaxin receptor 1 [2]) [nM] | Emax [3] [%] | half-life [4] [h] | remaining at 4 h, 5 µM [5] [%] | remaining at 4 h, 5 µM [6] [%] |
| --- | --- | --- | --- | --- | --- | --- |
| CCCC[C@H](NC(=O)[C@H](CCSC)NC(=O)CNC(=O)[C@H](CCC(=O)O)NC(=O)[C@@H](C)CNC(=O)[C@@H](C)CNC(=O)[C@@H](NC(=O)[C@H](CCCCCNC(C)=O)NC(=O)[C@H](CCCCN)NC(=O)[C@H](C)NC(=O)[C@H](CCCNC(=N)N)NC(=O)[C@@H](NC(=O)[C@H](CCCCN)NC(=O)[C@H](CCC(=O)O)NC(=O)[C@H](CCCNC(=N)N)NC(=O)[C@H](CCC(=O)O)NC(=O)CNC(=O)[C@H](CCC(=O)O)NC(=O)[C@H](CC(C)C)NC(C)=O)C(C)C)[C@@H](C)CC)C(=O)N[C@@H](CCCCN)C(=O)N[C@@H](CCCCCNC(C)=O)C(=O)N[C@@H](CO)C(=O)N[C@H](C(=O)N[C@@H](Cc1c[nH]c2ccccc12)C(=O)N[C@@H](CO)C(=O)NC[C@H](C)C(=O)N[C@@H](CCCNC(=N)N)C(=O)N[C@@H](CCCCN)C(=O)N[C@@H](CCCCN)C(=O)N[C@@H](CCCCCNC(C)=O)C(=O)N[C@@H](CCCCN)C(=O)N[C@@H](CCC(=O)O)C(=O)N[C@@H](CCC(=O)O)C(=O)N[C@@H](CCC(N)=O)C(=O)CCCCCCCCCCCCCCCC(=O)O)[C@@H](C)O (Ac-LEGEREKVRAK[hLys](Ac)I[β2hAla(2S)][β2hAla(2S)]EGM[Nle]K[hLys](Ac)STWS[β2hAla(2S)]RKK[hLys](Ac)KEE-X8) | 809 | > 2000 | 70 |  |  |  |
| CC[C@H](C)[C@H](NC(=O)[C@H](CCC(N)=O)NC(=O)[C@H](C)NC(=O)[C@H](CCCNC(=N)N)NC(=O)[C@@H](NC(=O)[C@H](CC(C)C)NC(=O)[C@H](CCC(=O)O)NC(=O)[C@H](CCCNC(=N)N)NC(=O)CNC(=O)[C@H](CO)NC(=O)[C@H](CC(C)C)NC(=O)[C@H](CCCCN)NC(=O)[C@@H](NC(=O)[C@@H](NC(C)=O)C(C)C)[C@@H](C)CC)C(C)C)C(=O)NC[C@H](C)C(=O)N[C@H](C(=O)N[C@@H](CO)C(=O)NCC(=O)N[C@@H](CCSC)C(=O)N[C@@H](CO)C(=O)N[C@H](C(=O)N[C@@H](Cc1c[nH]c2ccccc12)C(=O)N[C@@H](CO)C(=O)N[C@@H](CCCCN)C(=O)N[C@@H](CCCNC(=N)N)C(=O)N[C@@H](CO)C(=O)N[C@@H](CC(C)C)C(N)=O)[C@@H](C)O)[C@@H](C)CC (HELM PEPTIDE1{[ac].V.I.K.L.S.G.R.E.L.V.R.A.Q.I.[C[C@@H](CN[*:1])C(=O)[*:2]].I.S.G.M.S.T.W.S.K.R.S.L.[am]}$$$$V2.0) | 708 |  | 78 |  |  |  |
| Ac-EEVIKLSGRELVRAQIAISGMSTWSKRKK-NH2 | 897 |  | 92 |  |  |  |
| Ac-VIKLSGRELVRAQIAISGMSTWSKRKK-NH2 | 522 |  | 89 |  |  |  |

The next molecules have a lower EC50 (Relaxin receptor 1 [1]) than those just listed; values first:

| EC50 (Relaxin receptor 1 [1]) [nM] | EC50 (Relaxin receptor 1 [2]) [nM] | Emax [3] [%] | half-life [4] [h] | remaining at 4 h, 5 µM [5] [%] | remaining at 4 h, 5 µM [6] [%] | Molecule |
| --- | --- | --- | --- | --- | --- | --- |
| 3.2 |  | 74 | 6.4 |  |  | CCCCCCCCCCCCCCCC(=O)[C@H](CCC(N)=O)NC(=O)[C@H](CCC(=O)O)NC(=O)[C@H](CCC(=O)O)NC(=O)[C@H](CCCCN)NC(=O)CCOCCOCCOCCOCCOCCOCCOCCOCCOCCOCCOCCNC(=O)[C@H](CCCCN)NC(=O)[C@H](CCCNC(=N)N)NC(=O)[C@@H](C)CNC(=O)[C@H](CO)NC(=O)[C@H](Cc1c[nH]c2ccccc12)NC(=O)[C@@H](NC(=O)[C@H](CO)NC(=O)[C@H](CCCC)NC(=O)[C@H](CCSC)NC(=O)CNC(=O)[C@H](CCC(=O)O)NC(=O)[C@@H](C)CNC(=O)[C@@H](C)CNC(=O)[C@@H](NC(=O)[C@H](CCC(N)=O)NC(=O)[C@H](C)NC(=O)[C@H](CCCNC(=N)N)NC(=O)[C@@H](NC(=O)[C@H](CCCCN)NC(=O)[C@H](CCC(=O)O)NC(=O)[C@H](CCCNC(=N)N)NC(=O)[C@H](CCC(=O)O)NC(=O)CNC(=O)[C@H](CCC(=O)O)NC(=O)[C@H](CC(C)C)NC(C)=O)C(C)C)[C@@H](C)CC)[C@@H](C)O (Ac-LEGEREKVRAQI[β2hAla(2S)][β2hAla(2S)]EGM[Nle]STWS[β2hAla(2S)]RK[PEG11]KEE-X7) |
| 14 |  | 99 |  | 79 | 24 | CC[C@H](C)[C@H](NC(=O)[C@H](CCC(N)=O)NC(=O)[C@H](C)NC(=O)[C@H](CCCNC(=N)N)NC(=O)[C@@H](NC(=O)[C@H](CCCCN)NC(=O)[C@H](CCC(=O)O)NC(=O)[C@H](CCCNC(=N)N)NC(=O)CNC(=O)[C@H](CCC(=O)O)NC(=O)[C@H](CC(C)C)NC(C)=O)C(C)C)C(=O)NC[C@H](C)C(=O)NC[C@H](C)C(=O)N[C@@H](CCC(=O)O)C(=O)NCC(=O)N[C@@H](CCSC)C(=O)N[C@@H](CO)C(=O)N[C@@H](CCCCN)C(=O)N[C@@H](Cc1c[nH]c2ccccc12)C(=O)N[C@@H](CO)C(=O)N[C@@H](CCCCN)C(=O)N[C@@H](CCCNC(=N)N)C(=O)N[C@@H](CCCCN)C(=O)N[C@@H](CCCCN)C(N)=O (HELM PEPTIDE1{[ac].L.E.G.R.E.K.V.R.A.Q.I.[C[C@@H](CN[*:1])C(=O)[*:2]].[C[C@@H](CN[*:1])C(=O)[*:2]].E.G.M.S.K.W.S.K.R.K.K.[am]}$$$$V2.0) |
| 393 |  | 102 |  |  |  | CC[C@H](C)[C@H](NC(=O)[C@H](CCC(N)=O)NC(=O)[C@H](C)NC(=O)[C@H](CCCNC(=N)N)NC(=O)[C@@H](NC(=O)[C@H](CC(C)C)NC(=O)[C@H](CCC(=O)O)NC(=O)[C@H](CCCNC(=N)N)NC(=O)CNC(=O)[C@H](CO)NC(=O)[C@H](CC(C)C)NC(=O)[C@H](CCCCN)NC(=O)[C@@H](NC(=O)[C@@H](NC(C)=O)C(C)C)[C@@H](C)CC)C(C)C)C(=O)N[C@@H](C)C(=O)NC[C@H](C)C(=O)N[C@@H](CO)C(=O)NCC(=O)N[C@@H](CCSC)C(=O)N[C@@H](CO)C(=O)N[C@H](C(=O)N[C@@H](Cc1c[nH]c2ccccc12)C(=O)N[C@@H](CO)C(=O)N[C@@H](CCCCN)C(=O)N[C@@H](CCCNC(=N)N)C(=O)N[C@@H](CCCCN)C(=O)N[C@@H](CCCCN)C(N)=O)[C@@H](C)O (HELM PEPTIDE1{[ac].V.I.K.L.S.G.R.E.L.V.R.A.Q.I.A.[C[C@@H](CN[*:1])C(=O)[*:2]].S.G.M.S.T.W.S.K.R.K.K.[am]}$$$$V2.0) |
| 46 |  | 98 |  |  |  | CC[C@H](C)[C@H](NC(=O)[C@H](CCC(N)=O)NC(=O)[C@H](C)NC(=O)[C@H](CCCNC(=N)N)NC(=O)[C@@H](NC(=O)[C@H](CC(C)C)NC(=O)[C@H](CCC(=O)O)NC(=O)[C@H](CCCNC(=N)N)NC(=O)CNC(=O)[C@H](CO)NC(=O)[C@H](CC(C)C)NC(=O)[C@H](CCCCN)NC(=O)[C@@H](NC(=O)[C@@H](NC(C)=O)C(C)C)[C@@H](C)CC)C(C)C)C(=O)NC[C@H](C)C(=O)N[C@H](C(=O)N[C@@H](CCC(=O)O)C(=O)NCC(=O)N[C@@H](CCSC)C(=O)N[C@@H](CO)C(=O)N[C@@H](CCCCN)C(=O)N[C@@H](Cc1c[nH]c2ccccc12)C(=O)N[C@@H](CO)C(=O)N[C@@H](CCCCN)C(=O)N[C@@H](CCCNC(=N)N)C(=O)N[C@@H](CCCCN)C(=O)N[C@@H](CCCCN)C(N)=O)[C@@H](C)CC (HELM PEPTIDE1{[ac].V.I.K.L.S.G.R.E.L.V.R.A.Q.I.[C[C@@H](CN[*:1])C(=O)[*:2]].I.E.G.M.S.K.W.S.K.R.K.K.[am]}$$$$V2.0) |
| 92.1 |  | 99 |  |  |  | CC[C@H](C)[C@H](NC(=O)[C@H](CCC(N)=O)NC(=O)[C@H](C)NC(=O)[C@H](CCCNC(=N)N)NC(=O)[C@@H](NC(=O)[C@H](CC(C)C)NC(=O)[C@H](CCC(=O)O)NC(=O)[C@H](CCCNC(=N)N)NC(=O)CNC(=O)[C@H](CO)NC(=O)[C@H](CC(C)C)NC(=O)[C@H](CCCCN)NC(=O)[C@@H](NC(=O)[C@@H](NC(C)=O)C(C)C)[C@@H](C)CC)C(C)C)C(=O)NC[C@H](C)C(=O)NC[C@H](C)C(=O)N[C@@H](CO)C(=O)NCC(=O)N[C@@H](CCSC)C(=O)N[C@@H](CO)C(=O)N[C@H](C(=O)N[C@@H](Cc1c[nH]c2ccccc12)C(=O)N[C@@H](CO)C(=O)N[C@@H](CCCCN)C(=O)N[C@@H](CCCNC(=N)N)C(=O)N[C@@H](CCCCN)C(=O)N[C@@H](CCCCN)C(N)=O)[C@@H](C)O (HELM PEPTIDE1{[ac].V.I.K.L.S.G.R.E.L.V.R.A.Q.I.[C[C@@H](CN[*:1])C(=O)[*:2]].[C[C@@H](CN[*:1])C(=O)[*:2]].S.G.M.S.T.W.S.K.R.K.K.[am]}$$$$V2.0) |
